# Results published in ChEMBL document CHEMBL1140552, “Preparation, characterization and in vivo conversion of new water-soluble sulfenamide prodrugs of carbamazepine” (Bioorg Med Chem Lett, 2007).
# How the values were obtained:
# Rattus norvegicus [1] = test: AUC in Sprague-Dawley rat assessed as carbamazepine level at 4.54 mg/187 g, iv; format: ADME, organism-based, Plasma; conditions: in vivo
# [2] = Solubility at pH 2.6; format: physicochemical; conditions: buffer
# Rattus norvegicus [3] = test: Cmax in Sprague-Dawley rat assessed as carbamazepine level at 5.50 mg/227 g, iv; format: ADME, organism-based; design: route intravenous; conditions: in vivo
# Rattus norvegicus [4] = test: Cmax in Sprague-Dawley rat assessed as carbamazepine level at 4.54 mg/187 g, iv; format: ADME, organism-based; design: route intravenous; conditions: in vivo
# Rattus norvegicus [5] = test: AUC in Sprague-Dawley rat assessed as carbamazepine level at 5.50 mg/227 g, iv; format: ADME, organism-based, Plasma; conditions: in vivo
smiles,measurement,setting,value
NCCSNC(=O)N1c2ccccc2C=Cc2ccccc21.O=C(O)C(F)(F)F,AUC,Rattus norvegicus [1],964 µg/min/mL
same,solubility,[2],100 mg/mL
same,Cmax,Rattus norvegicus [3],16300 ng/mL
same,Cmax,Rattus norvegicus [4],14100 ng/mL
same,AUC,Rattus norvegicus [5],545 µg/min/mL
